According to patent publication US12404332B2, “Methods for diagnosing and treating cancers” (Research Development Foundation, priority 2020, dated 2025):
Residues, ends and D or L forms follow the SMILES beside them. *: point of attachment. Cbz = O=C(OCc1ccccc1)*

Key:
[1] = tested on: RT4 human bladder cancer cells; test: In vitro viability (MTT) of CTRL versus PD-L1^KO RT4 cells; assay type: cell-based; details: monotherapy
Method: (§1) Cells (1×10^3) were plated in 96 well plastic culture plates in respective medium and treated for 5 days with DDRi or 3 days with gemcitabine at indicated concentrations. Drug concentrations were carefully optimized in preliminary work not shown. Cell viability was by MTT (3-(4,5-dimethylthiazol-2-yl)-2,5-diphenyl tetrazolium bromide) at 5 mg/ml. Absorbance was measured at 540 nm. Results are presented as a mean+/−SEM of ≥6 replicates. Total cells and viability were confirmed using a Vi-Cell-XR (Beckman Coulter).

[2] = tested on: ID8agg murine ovarian cancer cells; test: In vitro viability (MTT) of CTRL versus PD-L1^KO ID8agg cells; assay type: cell-based, mouse; details: monotherapy
Method: as §1

[3] = tested on: 4T1 murine breast cancer cells; test: In vitro viability (MTT) of CTRL versus PD-L1^lo 4T1 cells; assay type: cell-based, mouse
Method: as §1

RT4 cells = test: Chk1 inhibitor synthetic lethality with beta-lactam antibiotics, RT4 cells; assay type: cell-based, human; details: for synthetic lethality with Chk1i: RT4 cells, Chk1i rabusertib
Method: Additional experiments were performed, as follows. MB49 were plated at 2,000 cells/well in 96 well flat bottom plates and treated with PD-L1 depleting drugs, olaparib (2.5 μM), and combination for 96 hours. RT4 were plated at 2,000 cells/well in 96 well flat bottom plates and treated with cefepime, rabusertib (1 μM), praxasertib, or combination for 96 hours. ID8agg, 4T1, and B16 cells were plated on fibronectin at 500 cells/well and treated with cefepime, rabusertib, or combination for 96 hours. Normalized treatment combination to DDR inhibitor alone, and PD-L1 depleting drug to vehicle alone (DMSO) were evaluated.

PD-L1 in OVCAR5 cells = test: PD-L1 mRNA, protein and ubiquitination in OVCAR5 cells; assay type: cell-based, human; details: OVCAR5 cells
Method: FIGS. 39A-C: CAMB reduces PD-L1 through ubiquitination. FIG. 39A, RT-qPCR for PD-L1 mRNA in OVCAR5 and ID8agg cells treated with (+) or without (−) chlorambucil for 48 hours. (n=4). FIG. 39B, Western blot for PD-L1 protein in OVCAR5 cells with (+) or without (−) MG132 for 6 or 20 hours. (upper panel). PD-L1 expression in OVCAR5 cells treated with chlorambucil 48 hours and/or MG132 for 6 hours (lower panel). FIG. 39C, Ubiquitinated PD-L1 was immunoprecipitated (IP) and subjected to Western blot analysis with anti-ubiquitin (Ub) antibody. Cells were treated with chlorambucil for indicated times prior to ubiquitination analysis.
(§2) Western blotting and immunoprecipitation: To prepare whole cell lysates, cells were harvested and lysed in RIPA (radioimmunoprecipitation assay) buffer plus 1 mM phenylmethylsulphonyl fluoride and Halt protease/phosphatase inhibitor cocktail (Thermo Scientific) at 4° C. Protein concentrations were measured by BCA Protein Assay Kit (Thermo Scientific). Protein was run on precast 4-15% sodium dodecyl sulfate polyacrylamide gels (Bio-Rad), transferred to polyvinylidene fluoride membranes (GE Water and Process Technologies), and then blocked in 5% non-fat milk for 1 hour at room temperature. The membranes were then incubated with 1:1000 diluted primary antibodies against indicated proteins (Cell Signaling). Specific antibody binding was detected by chemiluminescence using Western Lightening Plus regent (Perkin Elmer). Cells for (co) immunoprecipitation experiments were seeded in 15-cm dishes and cultured as described, using 6 million cells per immunoprecipitation reaction. For protein ubiquitination, cells were lysed in denaturing buffer (50 mM Tris-HCl, 0.5 mM EDTA and 1% SDS) followed by heating at 95° C. for 10 minutes and then quenched with 9 volumes of quenching buffer (0.5% Triton X-100, 20 mM Tris-HCl (pH 8.0), 137 mM NaCl, 10% glycerol, 2 mM EDTA). Protease inhibitor cocktail (Roche) was added fresh to all buffers. Cell lysates were incubated on a rotator for 30 minutes at 4° C., and then centrifuged at 20,000 g for 15 minutes at 4° C. Supernatants were subsequently incubated with anti-PD-L1 antibody overnight and processed using Dynabeads Protein G for Immunoprecipitation (Thermo Fisher Scientific). The final eluate was processed and Western blotting was performed.
Quantitative Real-Time Reverse Transcriptase Polymerase Chain Reaction: Total RNA was isolated from homogenized whole lung tissue with Trizol reagent (Invitrogen) according to manufacturer instructions. […] Quantitative PCR (qPCR) was conducted using the Bio-Rad Real-Time PCR System (Applied Biosystems), amplified with transcript-specific primers with SYBR Green (Thermo Scientific), according to manufacturer instructions. […]

PD-L1 = test: Tumor cell PD-L1 depletion by drugs (flow cytometry, immunoblot); assay type: cell-based, human and mouse; details: for expression of PD-L1 in cancer cells: summary statement
Method: High throughput Screening: B16 PD-L1 RFP cells were treated with 2.5 and 10 μM compounds from the Prestwick and LOPAC Libraries for 48 hours using the Agilent Bravo liquid pipetting platform. Then, cells were washed with PBS, and fixed with 4% paraformaldehyde (Electron Microscopy Sciences, Hatsfield, PA, Cat 15714S) and labeled with 2 μg/ml DAPI, (Molecular Probes, Cat D1306) and 1 μg/ml Cell Mask-Blue (Invitrogen, Cat. H32720). Plates were then imaged using the Operetta High Content Imaging System, Perkin Elmer, Waltham (DAPI and Cell Mask Blue, Ex 360-400, Em 410-480), and the RFP channels (Ex 520-550, Em 560-630) channels. Agents effecting ≥2-fold PD-L1 reduction in the RFP reporter without loss of ≥20% cell viability were candidate PD-L1 depletion agents.
Flow cytometry: Mice were sacrificed by cervical dislocation after induction of deep isoflurane anesthesia. ID8agg tumors were collected and cells were stained as described (Derup et al., 2020) using LSR II hardware and analyzed by FACS Diva (BD Bioscience) or Flow Jo software (Flow Jo, LLC). Anti-mouse (clone 10F.9G2) and human (clone 29E.2A3) PD-L1 [both PE/Cy7, Cat #124314 (mouse) 329718 (human)] were matched with isotype control. Apoptosis assessment used Annexin V and propidium iodide (Thermo Scientific) per manufacturer instruction.
as §2

mTORC1 = test: Western blots for mTORC1 pathway and LC3 autophagy; assay type: cell-based
Method: FIGS. 40A-C: CAMB suppresses mTORC1 signals and reduces TIC numbers. FIG. 40A, Western blots for proteins in the mTORC1 pathway. Cells were treated with chlorambucil as indicated concentration for 48 hours. FIG. 40B, Western blot for LC3I/II to assess autophagy in cell lysates treated±chlorambucil at indicated concentrations. FIG. 40C, Percent of ALDH^hi TIC by flow cytometry of ES2 cells cultured±chlorambucil. Percent CD44^+CD24^+ ID8agg TIC and CD44^+CD133^+CD24^+ B16 TIC detected by flow cytometry.
as §2

[4] = tested on: PD-L1, Chk2, gH2AX in RT4 cells; test: Cefepime depletion of PD-L1 and Chk2, DNA damage (gH2AX); assay type: cell-based, human
Method: Experiments were performed to see if beta-lactam antibiotics may deplete PD-L1 in cancer cells. RT4 cells were incubated at 80 μM cefepime.
Next experiments were performed to see if beta-lacatam antibiotics can deplete Chk2 in vitro. RT4 cells were treated with 1 μM rabusertib (Chk1i), 75 μM cefepime (D7), or combination. Protein lysates were collected at 24, 48, 72, and 96 hours.

[5] = tested on: UV induced TpN^61R derived CD274^+/+ or CD274^−/− melanoma cells; test: Viability of de novo Nras CD274^+/+ versus CD274^−/− melanoma cells; assay type: cell-based, mouse; details: in vitro
Source text: FIGS. 26A-H: De novo PD-L1^KO tumors phenocopy important aspects of genetic PD-L1 depletion in established tumors. FIG. 26A, Melanoma-free survival of melanocyte specific CD274^fl,fl TpN^61R (KO) versus littermate (WT) autochthonous mice under conditions shown. FIG. 26B, Validation of PD-L1 expression by immunoblot (IB) of melanoma cells derived from UV induced (4.5 Kj/m^2) WT (CD274^+/+) or melanocyte specific CD274^KO (CD274^−/−) mice±in vitro interferon (IFN)-γ treatment. Viability curves of CD274^+/+ versus CD274^−/− cells treated with the selective Chk1 inhibitors FIG. 26C, prexasertib […] or FIG. 26D, rabusertib (LY2603618) in vitro at indicated concentrations. FIG. 26E, IB analysis of PD-L1, ATM, Chk2, and γH2AX of vehicle or rabusertib-treated CD274^+/+ and CD274^−/− cell lines. FIGS. 26F-H, Tumor growth curves in WT C57BL/6J mice (n=10 tumors/group) challenged with UV induced TpN^61R derived CD274^+/+ or CD274^−/− melanoma cells and treated with rabusertib (Chk1i, LY2603618) on the indicated treatment schedule. P values, two-way ANOVA.

Structure (SMILES): CN(C)CCCOc1ccc(-c2ccc3ncc4c(c3c2)n(C2CCOCC2)c(=O)n4C)cn1 [AZD0156]
- sensitivity of PD-L1^KO versus control RT4 cells to the agent [1]: Minimal effects
- sensitivity of PD-L1^KO versus control ID8agg cells to the agent [2]: Minimal effects

Structure (SMILES): C[C@@H]1COCCN1c1cc(C2([S@](C)(=N)=O)CC2)nc(-c2cc[nH]c3nccc2-3)n1 [AZD6738]
- sensitivity of PD-L1^lo versus control 4T1 cells to the agent [3]: enhanced sensitivity
- sensitivity of PD-L1^KO versus control ID8agg cells to the agent ([2]; listed as ATRi): enhanced sensitivity

Structure (SMILES): CO/N=C(\C(=O)N[C@@H]1C(=O)N2C(C(=O)O)=C(CSc3nc(=O)c(=O)[nH]n3C)CS[C@H]12)c1csc(N)n1 [Ceftriaxone]
- synthetic lethality with Chk1i (RT4 cells): not as effective

Structure (SMILES): CC(C)C[C@@H](C=O)NC(=O)[C@H](CC(C)C)NC(=O)[C@H](CC(C)C)NC(=O)OCc1ccccc1 [MG132] (Cbz-Leu-Leu-Leu-aldehyde)
- effect on CAMB-mediated PD-L1 reduction (PD-L1 in OVCAR5 cells): abolished CAMB-mediated PD-L1 reduction
- PD-L1 expression (PD-L1 in OVCAR5 cells; by 6 hours after treatment): increased PD-L1 expression

Structure (SMILES): Nc1nc2c(ncn2CCOCP(=O)(O)O)c(=O)[nH]1 [PMEG, 9-(2-phosphonylmethoxyethyl) guanine]
- effect on cell viability (PD-L1; over 2-3 days, human and mouse tumor lines): little effect on cell viability
- expression of PD-L1 in cancer cells (PD-L1): decreased expression of PD-L1
- autophagy (mTORC1): promote autophagy
- mTORC1 signals (mTORC1): suppress mTORC1 signals

Structure (SMILES): CC1(C)S[C@@H]2[C@H](NC(=O)Cc3ccccc3)C(=O)N2[C@H]1C(=O)O [Penicillin G]
- synthetic lethality with Chk1i (RT4 cells): not induce synthetic lethality

Structure (SMILES): Cc1nnc(SCC2=C(C(=O)O)N3C(=O)[C@@H](NC(=O)Cn4cnnn4)[C@H]3SC2)s1 [cefazolin]
- synthetic lethality with Chk1i (RT4 cells): not as effective

Structure (SMILES): CO/N=C(\C(=O)N[C@@H]1C(=O)N2C(C(=O)[O-])=C(C[N+]3(C)CCCC3)CS[C@H]12)c1csc(N)n1 [cefepime]
- expression of PD-L1 in cancer cells (PD-L1): decreased expression of PD-L1
- effect on rabusertib efficacy (RT4 cells; FIG. 46B, cells not given): improves rabusertib efficacy
- synthetic lethality with Chk1i (RT4 cells): elicited Chk1 inhibitor synthetic lethality in a PD-L1-dependent manner
- Chk2 ([4]; FIGS. 44A-B, cells not given): depleted
- DNA damage, as measured via gH2AX ([4]; FIGS. 44A-B, cells not given): increased DNA damage
- PD-L1 ([4]; FIGS. 44A-B, cells not given): depleted
- Chk2 in vitro ([4]; RT4 cells, 75 μM, 24-96 hours): deplete Chk2
- PD-L1 expression in vitro ([4]; RT4 cells, 80 μM): deplete PD-L1 expression

Structure (SMILES): C[C@@H](O)[C@H]1C(=O)N2C(C(=O)O)=C(S[C@@H]3CN[C@H](C(=O)N(C)C)C3)[C@H](C)[C@H]12 [meropenem]
- synthetic lethality with Chk1i (RT4 cells): not induce synthetic lethality

Structure (SMILES): COc1cccc(OCCCN)c1-c1cc(Nc2cnc(C#N)cn2)n[nH]1 [prexasertib]
- synthetic lethality in induced PD-L1^KO tumors [5]: exhibited synthetic lethality
